The test system of test [1] is choroidal neovascularization (CNV) / choriocapillaris. The test can be described thus: Laser-induced CNV model, OCTA: CNV volume and choriocapillary regeneration (avascular space). The format is in vivo, mice. The note with it: for increased avascular space: 5 μg intravitreal at 7 days. As to the method:
To determine the effect of 2C8H11 in CNV regression and choriocapillary regeneration after establishment of CNV, Fc, VEGF-Trap, control antibody or 2C8H11 (5 μg each) was given intravitreally to the mice by the Nanoliter 2000 micro-injector (World Precision Instruments) at 7 days after laser photocoagulation. Intra-vital optical coherence tomography angiography (OCTA) was performed at 6, 14, 21, and 35 days after laser photocoagulation (FIG. 14A). The retinochoroidal layers were imaged using a prototype high-speed swept-source optical coherence tomography (OCT) system, utilizing a custom ring cavity wavelength-swept laser centered at 1048 nm with an A-scan rate of 230 kHz. OCT images were collected in a 1.7 mm×1.7 mm field of view within the retino-choroidal layer to monitor regeneration of choroidal vasculatures at the site of laser photocoagulation after intravitreal injection of reagents. […] Then, by using automatic layer flattening and segmentation algorithms, cross-sectional OCT angiograms were flattened to RPE, and en face OCT angiograms were generated by separate projection of each flattened cross-sectional OCT angiogram in three depth ranges: inner retinal, outer retinal and choroidal layers. The outer plexiform layer and Bruch's membrane were defined as the boundaries separating inner retinal, outer retinal, and choroidal layers. The density of retina and choroid vessel was automatically calculated as the proportion of measured area occupied by flowing blood vessels defined as pixels having decorrelation values above the threshold level. Avascular pixels were detected from the en face OCT angiogram representing choroidal layer by means of the image processing toolbox of MATLAB® (Math Works). Then the total volume of the avascular space surrounding the laser injury site was calculated by summing the number of avascular pixels multiplied by the volume of one pixel. In order to analyze the changing complexion of avascular space volume, serially measured values in each eye were transformed into percentage change from baseline value. […] Overall, these findings indicate that both 2C8H11 and […] promotes regeneration of the choriocapillaris, while VEGF-Trap leads to choriocapillary regression in the laser-induced CNV model.

Test [2] relates to choroidal neovascularization (CNV). The test can be described thus: Laser-induced CNV model, intravitreal injection: CNV regression and vascular leakage. The format is in vivo, mice. The following applies: 5 μg intravitreal at 7 days. How it is done:
2C8H11 antibody was tested for its ability to inhibit choroidal neovascularization (CNV), the hallmark of wet age-related macular degeneration (AMD) using laser-induced CNV model. After dilation of pupils with 5 mg/ml phenylephrine and 5 mg/ml tropicamide eye drops (Santen Pharmaceutical) and instillation of 0.5% proparacaine hydrochloride eye drops (Alcon) for topical anesthesia, laser photocoagulator (Lumenis Inc.) with a slit lamp delivery system was used with a glass coverslip as a contact lens to visualize the retina. Sufficient laser energy (532 nm wavelength, 250 mW power, 100 ms duration, 50 μm spot size) was delivered in 4 locations for each eye (the 3, 6, 9 and 12 o'clock positions of the posterior pole). Only burns that produced a bubble at the time of laser photocoagulation, indicating the rupture of the Bruch's membrane, were included in this study. Spots containing hemorrhage at the laser site were excluded from the analysis. To recapitulate a clinical situation, 2C8H11 (5 μg) was administered intravitreally to the mice at 7 days after laser photocoagulation (FIG. 13A). As a control or as for comparison, Fc or VEGF-Trap (5 μg each) was administered in the same manner to the mice. To intravitreally administer indicated reagents, ˜1 μl (5 mg/ml) containing 5 μg of each reagent was injected into the vitreal cavity using the Nanoliter 2000 micro-injector (World Precision Instruments) fitted with a glass capillary pipette. CD31+CNV volumes of the retinal pigment epithelium (RPE)-choroid-sclera flat mounts were calculated using the MATLAB® Image Processing Toolbox™ (Math Works, a comprehensive set of reference-standard algorithms and workflow apps for image processing, analysis, visualization, and algorithm development) at 14 days after laser photocoagulation. Anti-CD31 antibody (1:200, Millipore®) was used for the detection of endothelial cells of CNV. […] Combined fluorescein angiography (FA) and indocyanine green angiography (ICGA) enabled us to measure vascular leakage at the neovessels around the laser injury site. Continuous-wave laser modules at 488 nm and 785 nm were used as excitation sources for fluorescein and ICG, respectively. A raster scanning pattern of excitation lasers was achieved by a scanner system consisting of a rotating polygonal mirror (MC-5; Lincoln Laser) and a galvanometer-based scanning mirror (6230H; Cambridge technology), and delivered to the back aperture of an imaging lens. A high numerical aperture (NA) objective lens (PlanApo λ, NA 0.75; Nikon) was used as the imaging lens to provide wide-field fundus fluorescence images. Fluorescence signals detected by photomultiplier tubes (R9110; Hamamatsu Photonics) were digitized by frame grabber and reconstructed to images with size of 512×512 pixels per frame in real time. To visualize late-phase (6 min) FA and ICGA images utilizing the angiography system, 10 mg of fluorescein sodium (Alcon) and 0.15 mg of ICG (Daiichi Pharmaceutical) were administered intraperitoneally and intravenously, respectively. The imaging procedure was performed under systemic anesthesia and pupil dilation to improve the quality of images. Leaky areas from CNV were calculated as the total measured hyperfluorescent areas in FA images divided by the total measured CNV areas in ICGA images using a Java-based imaging software (ImajeJ; National Institutes of Health). […] Thus, the magnitude of the suppression of CNV and vascular leakage was quantitatively indistinguishable between VEGF-Trap and 2C8H11 in the mouse model of laser-induced CNV.

The target in test [3] is T1, hAng2 (Homo sapiens, UniProt O15123).
T1 sequence (O15123 19-496): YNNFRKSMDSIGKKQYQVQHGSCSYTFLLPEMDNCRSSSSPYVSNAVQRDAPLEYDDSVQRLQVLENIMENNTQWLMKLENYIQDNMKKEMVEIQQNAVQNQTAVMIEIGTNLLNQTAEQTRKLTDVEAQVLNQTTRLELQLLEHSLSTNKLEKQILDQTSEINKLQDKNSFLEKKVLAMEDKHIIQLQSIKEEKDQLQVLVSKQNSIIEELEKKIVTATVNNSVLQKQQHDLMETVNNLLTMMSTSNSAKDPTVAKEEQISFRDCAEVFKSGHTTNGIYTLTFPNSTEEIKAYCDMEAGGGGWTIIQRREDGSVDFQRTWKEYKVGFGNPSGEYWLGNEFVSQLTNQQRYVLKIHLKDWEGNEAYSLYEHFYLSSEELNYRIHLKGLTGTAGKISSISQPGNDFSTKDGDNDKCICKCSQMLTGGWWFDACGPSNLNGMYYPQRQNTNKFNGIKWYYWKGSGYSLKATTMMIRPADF
The test can be described thus: OCTET affinity of humanized anti-Ang2 antibodies against hAng2. The format is binding. The following applies: humanized 4B9 antibodies (IgG1) fixed on AR2G biosensor; hAng2 50-0 nM.

The test system of test [4] is Tie2 receptor clustering / FOXO1 translocation in HUVECs. The test can be described thus: Tie2 clustering and FOXO1 translocation in HUVECs (immunofluorescence). The format is cell-based, human. The following applies: HUVECs; 30 min; compared to serum-starved control. How it is done: Tie2 clustering at cell-cell junction area and FOXO1 translocation from nucleus to cytosol by anti-Ang2 antibodies were examined in HUVECs by immunofluorescence. Specifically, HUVECs were seeded on 8 well slide chamber (Lab-Tek™ II) and maintained in EGM-2 medium for 2-3 days. At 100% confluence, the cells were serum starved with EBM-2 medium for 4 hrs and then treated with 1 μg/ml anti-Ang2 antibodies together with 1 μg/ml of hAng2 for 30 min. Thereafter, the cells were fixed with 4% formaldehyde in PBS at room temperature (RT) for 10 min, permeabilized with 0.1% TRITON™ X-100 (non-ionic polyoxyethylene surfactant) in PBS, blocked with 1% BSA in PBS at RT for 60 min, and incubated with primary antibodies at RT for 1 hr. The primary antibodies for hTie2, FOXO1, and Human Fc were used. The cells were then incubated with secondary antibodies (Invitrogen) in the dark at RT for 1 hr and mounted with VECTASHIELD® mounting medium with DAPI (Vector Labs, antifade mounting media optimized for immunofluorescence applications). Images were taken with a laser scanning confocal microscope (LSM880, Carl Zeiss).
2C8H11-induced Tie2 clustering and FOXO1 translocation was examined in a time-course study (from 10 min to 240 min). […] 6-4: Inhibition of Vascular Permeability by Humanized Anti-Ang2 Antibodies

Positions count from the first letter of the chain named.

Turning to “VEGF-Trap: VEGF-Trap, comparison agent given intravitreally, 5 μg [reference compound]”, in test [1] (5 μg intravitreal at 7 days after laser photocoagulation), the “CNV volume in outer retinas (OCTA)” value is recorded as “markedly reduced CNV volume”. Further, the figures for the increased avascular space in test [1] (D14), in test [1] (D21) and in test [1] (D35) were 11.4%, 16.0% and 18.1%, respectively. Further, the “vascular leakage suppression compared with Fc” value in test [2] (FA/ICGA, 14 days after laser photocoagulation) amounted to 37.0%. The “CNV regression compared with Fc (CD31+ CNV volume)” value in test [2] (measured 14 days after laser photocoagulation) came out at 64.4%. Also, the “vascular leakage reduction between 6 and 14 days after laser photocoagulation” value in test [2] (within-group) is reported as 45.6%.

B1: 4B9H21: humanized anti-Ang2 human IgG1 antibody from mouse 4B9; VH SEQ ID NO: 47, VL SEQ ID NO: 48 (antibody, V domains shown)
VH: QVQLVESGGGLVKPGGSLRLSCAASGFTFSDYYMYWVRQAPGKGLEWVSTISVGGSFTYYPDSVKGRFTISRDNAKNSLYLQMNSLRAEDTAVYYCARDWGLRPWFVYWGQGTLVTVSS
VL: DIQMTQSPSSLSASVGDRVTITCKASQDVSTAVAWYQQKPGKAPKLLIYWASTRHTGVPSRFSGSGSGTDFTLTISSLQPEDFATYYCQQHYSTPPTFGQGTKVEIK
modifications: human IgG1 constant regions; VH; VL
Regarding B1, in test [3], the “Kdis” value amounted to 8.94e-06 s⁻¹ and the “Kon” value came out at 73700 M⁻¹ s⁻¹.

B2: 4B9H31: humanized anti-Ang2 human IgG1 antibody from mouse 4B9; VH SEQ ID NO: 51, VL SEQ ID NO: 52 (antibody, V domains shown)
VH: B1 VH with S49A
VL: B1 VL
modifications: human IgG1 constant regions; VH; VL
For the molecule B2, in test [3], the “Kdis” value is 1.56e-05 s⁻¹ and the “Kon” value was found to be 93900 M⁻¹ s⁻¹.

B3: Ang2: full-length human angiopoietin-2 protein (R&D Systems), Tie2 ligand, SEQ ID NO: 1 (protein)
chain: MWQIVFFTLSCDLVLAAAYNNFRKSMDSIGKKQYQVQHGSCSYTFLLPEMDNCRSSSSPYVSNAVQRDAPLEYDDSVQRLQVLENIMENNTQWLMKLENYIQDNMKKEMVEIQQNAVQNQTAVMIEIGTNLLNQTAEQTRKLTDVEAQVLNQTTRLELQLLEHSLSTNKLEKQILDQTSEINKLQDKNSFLEKKVLAMEDKHIIQLQSIKEEKDQLQVLVSKQNSIIEELEKKIVTATVNNSVLQKQQHDLMETVNNLLTMMSTSNSAKDPTVAKEEQISFRDCAEVFKSGHTTNGIYTLTFPNSTEEIKAYCDMEAGGGGWTIIQRREDGSVDFQRTWKEYKVGFGNPSGEYWLGNEFVSQLTNQQRYVLKIHLKDWEGNEAYSLYEHFYLSSEELNYRIHLKGLTGTAGKISSISQPGNDFSTKDGDNDKCICKCSQMLTGGWWFDACGPSNLNGMYYPQRQNTNKFNGIKWYYWKGSGYSLKATTMMIRPADF
modifications: Human Angiopoietin-2 full-length
As for B3, the “FOXO1 translocation from nucleus to cytosol” value in test [4] was “negligibly induced”.

(Values after patent publication US12331106B2, “Anti-angiopoietin-2 antibodies that induce Tie2 activation” (Institute for Basic Science, priority 2018, dated 2025).)
